In the supplement of paper PMC10307832:

Columns and labels:
Test in all cases: relative viability (nuclei count vs DMSO), 5 days (fraction); higher = more cells survive
Pazopanib + Bortezomib = compound: Cc1ccc(Nc2nccc(N(C)c3ccc4c(C)n(C)nc4c3)n2)cc1S(N)(=O)=O [Pazopanib] + CC(C)C[C@H](NC(=O)[C@H](Cc1ccccc1)NC(=O)c1cnccn1)B(O)O [Bortezomib] (partner 0.002 µM)
In short: (§1)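 After 5 days of treatment, lung cancer cells in 1536-well plates were fixed and stained in a single step (final 0.05% Triton X-100, 1% formaldehyde, 1 ug/ml Hoechst) and their nuclei counted on 4× images. Treatment had been applied by pin tool the day after seeding as one drug alone or as a fixed anchor-drug dose with five library-drug doses (not always all listed) in √10 steps. Relative viability is the nuclei count of treated wells divided by that of vehicle wells, and values are medians of duplicate plates.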

Ponatinib + Crizotinib = compound: Cc1ccc(C(=O)Nc2ccc(CN3CCN(C)CC3)c(C(F)(F)F)c2)cc1C#Cc1cnc2cccnn12 [Ponatinib] + C[C@@H](Oc1cc(-c2cnn(C3CCNCC3)c2)cnc1N)c1c(Cl)ccc(F)c1Cl [Crizotinib] (partner 1 µM)
In short: as §1

Pazopanib + Vorinostat = compound: Cc1ccc(Nc2nccc(N(C)c3ccc4c(C)n(C)nc4c3)n2)cc1S(N)(=O)=O [Pazopanib] + O=C(CCCCCCC(=O)Nc1ccccc1)NO [Vorinostat] (partner 1 µM)
In short: as §1

Ponatinib + Palbociclib = compound: Cc1ccc(C(=O)Nc2ccc(CN3CCN(C)CC3)c(C(F)(F)F)c2)cc1C#Cc1cnc2cccnn12 [Ponatinib] + CC(=O)c1c(C)c2cnc(Nc3ccc(N4CCNCC4)cn3)nc2n(C2CCCC2)c1=O [Palbociclib] (partner 0.5 µM)
In short: as §1

Cell Line	relative viability (Pazopanib + Bortezomib; first compound 0.01 µM)	relative viability (Pazopanib + Bortezomib; first compound 0.03162 µM)	relative viability (Pazopanib + Bortezomib; first compound 0.1 µM)	relative viability (Pazopanib + Bortezomib; first compound 0.3162 µM)	relative viability (Pazopanib + Bortezomib; first compound 1 µM)	relative viability (Ponatinib + Crizotinib; first compound 0.002 µM)	relative viability (Ponatinib + Crizotinib; first compound 0.006325 µM)	relative viability (Ponatinib + Crizotinib; first compound 0.06325 µM)	relative viability (Ponatinib + Crizotinib; first compound 0.2 µM)	relative viability (Pazopanib + Vorinostat; first compound 0.01 µM)	relative viability (Pazopanib + Vorinostat; first compound 0.03162 µM)	relative viability (Pazopanib + Vorinostat; first compound 0.1 µM)	relative viability (Pazopanib + Vorinostat; first compound 0.3162 µM)	relative viability (Pazopanib + Vorinostat; first compound 1 µM)	relative viability (Ponatinib + Palbociclib; first compound 0.002 µM)	relative viability (Ponatinib + Palbociclib; first compound 0.006325 µM)	relative viability (Ponatinib + Palbociclib; first compound 0.06325 µM)	relative viability (Ponatinib + Palbociclib; first compound 0.2 µM)
201T	1.09	1.14	1.13	1.1	1.11	1.03	1.07	1.06	1.02	0.892	0.949	0.937	1.02	0.843	0.367	0.359	0.351	0.328
A549						0.625	0.743	0.682	0.702									
A-427	0.934	1.02	0.929	0.922	1.02	0.875	1.02	0.838	0.743	0.862	0.941	0.825	0.903	0.971	0.511	0.535	0.528	0.438
ABC-1	0.257	0.293	0.212	0.316	0.343	1.24	1.23	1.08	0.852	1.04	1.38	0.731	1.2	1.27	0.571	0.693	0.877	0.646
BEN	0.581	0.725	0.76	0.917	0.874	0.838	0.824	0.804	0.794	0.593	0.606	0.533	0.591	0.563	0.453	0.528	0.469	0.47
CAL-12T	1.05	1.01	0.843	1.04	1.35	0.774	0.653	0.756	0.614	0.742	0.649	0.744	0.754	0.834	0.295	0.524	0.622	0.535
COR-L23	1.23	1.08	1.12	0.935	1.02	0.525	0.588	0.619	0.568	0.446	0.5	0.424	0.508	0.514	0.271	0.287	0.272	0.229
COR-L 105	0.903	0.859	0.684	0.765	0.977	0.706	1.05	0.791	0.703	0.867	0.959	0.765	0.878	0.882	0.351	0.4	0.404	0.447
Calu-6	0.928	1.06	1.04	0.932	0.957	0.701	0.73	0.805	0.763									
ChaGo-K-1	1.12	1.1	0.952	0.91	0.951	1.12	1.16	1.08	0.95	0.743	0.772	0.756	0.757	0.727	0.887	0.964	0.936	0.856
EBC-1	0.524	0.602	0.712	0.519	0.65	0.179	0.214	0.208	0.192									
EKVX	1.09	1.02	1	0.996	1.02	0.789	0.995	1.09	1.02	0.674	0.731	0.79	0.742	0.604	0.382	0.419	0.458	0.438
EMC-BAC-2	0.889	1.11	1.1	1.04	1.22	0.708	0.661	0.747	0.727		0.512	0.232	0.472	0.432	0.469	0.486	0.476	0.42
EPLC-272H	0.765	1.07	0.843	1.12	1.1	0.787	0.753	0.886	0.811	0.389	0.432	0.682	0.652	0.535	0.292	0.34	0.376	0.332
H3255	0.695	0.723	0.75	1.06	0.92	0.861	0.916	0.951	0.727	0.709	0.841	0.701	0.901	0.793	0.325	0.312	0.297	0.297
HARA	1.14	1.08	1.25	1.22	1.08	0.972	1.01	0.973	1.02	0.475	0.424	0.605	0.438	0.605	0.246	0.332	0.228	0.246
HCC-15	1.05	1.18	1.04	0.976	1.05	0.828	0.843	0.858	0.802	0.878	0.906	0.867	0.893	0.791	0.675	0.752	0.798	0.672
HCC-44	0.942	0.877	0.891	0.899	0.989	0.752	0.799	0.908	0.808	1.11	1.01	1.08	1.04	1.15	0.891	0.981	0.932	0.852
HCC-78	0.408	0.453	0.498	0.414	0.619	0.291	0.322	0.447	0.312		0.455	0.433	0.412	0.446	0.422	0.528	0.418	0.471
